Data as given in US3973006A, “Peptide enzyme inhibitors of angiotensin I” (E. R. Squibb & Sons, Inc., priority 1975, dated 1976).

Key:
[1] = biological target: angiotensin-converting enzyme (Homo sapiens, UniProt P12821); experiment: Inhibition of angiotensin-converting enzyme (conversion of angiotensin I into angiotensin II), I50 determination; type: biochemical; conditions: for IC50: 0.3 mM angiotensin I, 100 mM potassium phosphate buffer pH 7.5, 30 mM NaCl, 37°, read-out: I50 (concentration of peptide producing a 50% inhibition of angiotensin-converting enzyme) (converted)
Protocol: For determination of I50 values (concentration of peptide expressed in micrograms/ml. producing a 50% inhibition of angiotensin-converting enzyme), varying concentrations of the peptide of Example 19 are added to 13 × 100 mm. assay tubes containing a final volume of 0.25 ml. containing 100 mM. potassium phosphate buffer, pH 7.5, 30 mM. NaCl, and 0.3 mM. angiotensin I. Enzymatic reactions are initiated by addition of enzyme and incubation is carried out at 37°. The concentration of the peptide of Example 19 of the present invention which inhibits conversion of 50% of angiotensin I into angiotensin II is found to be 7 μg./ml as opposed to an I50 (μg/ml) of 0.9 for the parent peptide Pyr-Trp-Pro-Arg-Pro-Gln-Ile-Pro-Pro.

[2] = tested on: angiotensin I induced pressor response; experiment: Inhibition of angiotensin I induced pressor response in anesthetized rats; type: in vivo; conditions: intravenous; atropinized anesthetized male rats infused with pentolinium; 0.10 μg/kg angiotensin I

Chain of angiotensin-converting enzyme (P12821 30-1306, species assumed): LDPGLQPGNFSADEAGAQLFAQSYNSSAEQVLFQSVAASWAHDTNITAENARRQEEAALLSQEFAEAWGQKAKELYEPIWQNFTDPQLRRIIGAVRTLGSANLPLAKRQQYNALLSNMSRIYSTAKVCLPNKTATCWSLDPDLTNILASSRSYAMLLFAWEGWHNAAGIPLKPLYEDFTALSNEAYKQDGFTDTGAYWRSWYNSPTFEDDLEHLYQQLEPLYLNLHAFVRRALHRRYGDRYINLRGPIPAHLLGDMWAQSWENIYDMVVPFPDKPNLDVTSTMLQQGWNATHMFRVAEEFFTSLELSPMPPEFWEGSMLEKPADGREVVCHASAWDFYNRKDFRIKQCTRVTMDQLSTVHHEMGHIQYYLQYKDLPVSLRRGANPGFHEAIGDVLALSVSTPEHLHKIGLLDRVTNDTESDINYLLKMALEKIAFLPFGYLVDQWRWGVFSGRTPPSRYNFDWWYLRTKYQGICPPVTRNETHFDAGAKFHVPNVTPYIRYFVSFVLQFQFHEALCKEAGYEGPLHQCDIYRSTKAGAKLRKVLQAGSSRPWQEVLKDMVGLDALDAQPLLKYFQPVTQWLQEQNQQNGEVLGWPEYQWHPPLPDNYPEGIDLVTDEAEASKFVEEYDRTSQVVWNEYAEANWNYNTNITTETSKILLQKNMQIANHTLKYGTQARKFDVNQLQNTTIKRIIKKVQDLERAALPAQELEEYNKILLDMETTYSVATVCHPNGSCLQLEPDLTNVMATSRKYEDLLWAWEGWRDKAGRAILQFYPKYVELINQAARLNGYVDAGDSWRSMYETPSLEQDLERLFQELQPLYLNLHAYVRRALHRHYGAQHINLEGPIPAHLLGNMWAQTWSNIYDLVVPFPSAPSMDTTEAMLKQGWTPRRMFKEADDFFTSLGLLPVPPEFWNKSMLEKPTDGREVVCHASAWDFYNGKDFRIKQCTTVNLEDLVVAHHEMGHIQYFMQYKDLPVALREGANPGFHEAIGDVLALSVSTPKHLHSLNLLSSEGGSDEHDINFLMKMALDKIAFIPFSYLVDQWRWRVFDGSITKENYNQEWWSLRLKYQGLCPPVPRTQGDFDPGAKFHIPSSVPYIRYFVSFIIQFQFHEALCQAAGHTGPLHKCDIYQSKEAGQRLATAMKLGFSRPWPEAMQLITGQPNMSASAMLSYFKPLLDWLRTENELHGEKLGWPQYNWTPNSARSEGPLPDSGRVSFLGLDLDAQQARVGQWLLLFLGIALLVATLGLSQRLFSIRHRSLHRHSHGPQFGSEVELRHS

SMILES | IC50 [1] [µM] | in vitro potency in inhibiting conversion of angiotensin I into angiotensin II, compared with parent control peptide ([1]; in vitro) | in vivo activity (degree of inhibition of angiotensin I induced pressor response) [2]
CC[C@H](C)[C@H](NC(=O)[C@H](CCC(N)=O)NC(=O)[C@@H]1CCCN1C(=O)[C@H](CCCNC(=N)N)NC(=O)[C@@H]1CCCN1C(=O)[C@H](Cc1c[nH]c2ccccc12)NC(=O)[C@@H]1CCC(=O)N1)C(=O)N1CCC[C@H]1C(=O)N1CCC[C@H]1C(=O)OC [Example 19, Pyroglutamyl-tryptophyl-prolyl-arginyl-prolyl-glutaminyl-isoleucyl-prolyl-proline, methyl ester] | 6.28 | substantially less potent than the parent control peptide | roughly equivalent to that of the parent Control peptide
CC[C@H](C)[C@H](NC(=O)[C@H](CCC(N)=O)NC(=O)[C@@H]1CCCN1C(=O)[C@H](CCCNC(=N)N)NC(=O)[C@@H]1CCCN1C(=O)[C@H](Cc1c[nH]c2ccccc12)NC(=O)[C@@H]1CCC(=O)N1)C(=O)N1CCC[C@H]1C(=O)N1CCC[C@H]1C(=O)O [Pyr-Trp-Pro-Arg-Pro-Gln-Ile-Pro-Pro, Pyroglutamyl-tryptophyl-prolyl-arginyl-prolyl-glutaminyl-isoleucyl-prolyl-proline, reference compound] | 0.817 | – | –
